Reference: the supplement of paper PMC3974653
Counter-ions that a name gives are not always drawn.

Tested on: MTT (mouse pheochromocytoma)
Test: IC50 of cell viability (ATP content)
Conditions: (24 or 48 h)
Method in brief: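 Cells of the MTT mouse pheochromocytoma line, 5 µl per well at 200,000 cells/ml, were grown overnight at 37°C, 5% CO2 in white 1536-well plates with DMEM, 5% FBS and 1% horse serum. Pintool transfer then delivered 23 nl of library compound in DMSO, giving 8 final concentrations from 0.5 nM to 46 µM, for an exposure of 24 or 48 hrs. Luminescence from CellTiter-Glo was read after 15 minutes and referenced to positive-control wells (100%) and DMSO wells (0%). IC50 was calculated with a four-parameter logistic fit.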

C[C@H](O)[C@H]1[C@@H]2[C@@H](C)\C(=C(/N2C1=O)C(O)=O)S[C@@H]3CN[C@H](C3)C(=O)N(C)C [Meropenem]
IC50 of cell viability: > 46 µM

Nc1ccc(O)c(C(=O)O)c1 [Mesalamine]
IC50 of cell viability: > 46 µM

COc1cc(CCN)cc(OC)c1OC [Mescaline]
IC50 of cell viability: > 46 µM

C[S+](=O)([O-])c1ccc(C(=O)C2C(=O)CCCC2=O)c([N+](=O)[O-])c1 [Mesotrione]
IC50 of cell viability: > 46 µM

CC12CCC(=O)CC1CCC1C2CCC2(C)C1CCC2(C)O (stereo not given) [Mestanolone]
IC50 of cell viability: > 46 µM

C[C@]12C=CC(=O)C=C1CC[C@@H]1[C@@H]2CC[C@@]2(C)[C@H]1CC[C@]2(C)O [Metandienona]
IC50 of cell viability: > 46 µM

CC(C)NC[C@H](O)c1cc(O)cc(O)c1 [Metaproterenol sulfate, orciprenaline sulfate]
IC50 of cell viability: > 46 µM

C[C@H](N)[C@H](O)c1cccc(O)c1.O=C(O)[C@@H](O)[C@@H](O)C(=O)O.O=C(O)[C@@H](O)[C@@H](O)C(=O)O [Metaraminol bitartrate]
IC50 of cell viability: > 46 µM

O=C(NNCNNC(=O)c1ccncc1)c1ccncc1 [Metazida]
IC50 of cell viability: > 46 µM

CN(C)C(=N)NC(=N)N [Metformin hydrochloride]
IC50 of cell viability: > 46 µM

CC(=O)O[C@@H](C)C[N+](C)(C)C [Methacholine chloride]
IC50 of cell viability: > 46 µM

CN(C)[C@H]\1[C@@H]2[C@@H](O)[C@@H]\3C(=C)C4=C(C(=CC=C4)O)C(=O)C3=C(\O)[C@@]2(O)C(=O)\C(=C1O)C(N)=O [Methacycline hydrochloride]
IC50 of cell viability: > 46 µM

CO [Methanol]
IC50 of cell viability: > 46 µM

CC[N+](C)(CC)CCOC(=O)C1c2ccccc2Oc2ccccc21 [Methantheline bromide]
IC50 of cell viability: > 46 µM

CC1=CC=CC=C1N2\C(=N/C3=CC=CC=C3C2=O)C [Methaqualone]
IC50 of cell viability: > 46 µM

CC(=O)/N=c1/sc([S+](N)(=O)[O-])nn1C [Methazolamide]
IC50 of cell viability: > 46 µM

COC/1=N/N(CS[P](=S)(OC)OC)C(=O)S1 [Methidathion]
IC50 of cell viability: > 46 µM

Cn1ccnc1S [Methimazole]
IC50 of cell viability: > 46 µM

COc1ccccc1OC[C@H](O)COC(N)=O [Methocarbamol]
IC50 of cell viability: > 46 µM

COC(C)(C)CCCC(C)C/C=C/C(C)=C/C(=O)OC(C)C (stereo not given) [Methoprene]
IC50 of cell viability: > 46 µM

COc1ccc2c(c1)N(C[C@@H](C)CN(C)C)c1ccccc1S2 [Methotrimeprazine maleat salt]
IC50 of cell viability: > 46 µM

COC1=C2OC(=O)\C=C/C2=CC3=C1OC=C3 [Methoxsalen]
IC50 of cell viability: > 46 µM

COc1ccc(C(c2ccc(OC)cc2)C(Cl)(Cl)Cl)cc1 [Methoxychlor]
IC50 of cell viability: > 46 µM

CNC(C)Cc1ccccc1OC (stereo not given) [Methoxyphenamine]
IC50 of cell viability: > 46 µM

CN1C(=O)CC(C)(c2ccccc2)C1=O (stereo not given) [Methsuximide]
IC50 of cell viability: > 46 µM

COC(C)=O [Methyl acetate]
IC50 of cell viability: > 46 µM

COC(=O)c1ccccc1O [Methyl salicylate]
IC50 of cell viability: > 46 µM

C[N+]1(C)[C@@H]2CC[C@@H]1CC(OC(=O)[C@@H](CO)c1ccccc1)C2.O=[N+]([O-])[O-] (stereo not given in full) [Methylatropine nitrate]
IC50 of cell viability: > 46 µM

Cc1cc(C(C)(C)CC(C)(C)C)ccc1OCCOCC[N+](C)(C)Cc1ccccc1 [Methylbenzethonium chloride]
IC50 of cell viability: > 46 µM

CNC(=O)OCC[N+](C)(C)C.[Cl-] [Methylcarbamylcholine chloride]
IC50 of cell viability: > 46 µM
